Measurements reported in US20250144067A1, “PERSONALIZED STARVATION THERAPY FOR CANCER” (Faeth Therapeutics, Inc., priority 2021, published 2025).
Structures can show the parent of a compound that is named as a salt.

Each molecule was assayed on NCI-H292 lung cancer cells (assay: FDA drug screening, complete media vs cholesterol-free media with simvastatin (TABLE 2)). Conditions: NCI-H292 cells, cholesterol-free media with simvastatin 0.04 μM; FDA drug library screen (TABLE 2).
Assay type: cell-based, human

| SMILES | Cholesterol-free media + simvastatin (0.04 μM) |
| --- | --- |
| C=CC(=O)N1CCC([C@@H]2CCNc3c(C(N)=O)c(-c4ccc(Oc5ccccc5)cc4)nn32)CC1 [Zanubrutinib] | 0.7245 |
| C[C@H](CSC(=O)c1ccccc1)C(=O)N1C[C@@H](Sc2ccccc2)C[C@H]1C(=O)O [Zofenopril (calcium)] | 0.8443 |

Same assay, conditions: NCI-H292 cells, cholesterol-free media with simvastatin 0.04 μM; cell growth value in FDA drug screen

| SMILES | Cholesterol-free media + simvastatin (0.04 μM) |
| --- | --- |
| COC(=O)[C@@H]1[C@H]2C[C@H]3c4[nH]c5ccccc5c4CCN3C[C@@H]2CC[C@@H]1O [Yohimbine (Hydrochloride)] | 1.051 |
| Nc1ccn([C@H]2CC[C@@H](CO)O2)c(=O)n1 [Zalcitabine] | 1.825 |
| O=C1Cc2cc(CCN3CCN(c4nsc5ccccc45)CC3)c(Cl)cc2N1 [Ziprasidone (hydrochloride monohydrate)] | 0.5734 |
| O=C1Cc2cc(CCN3CCN(c4nsc5ccccc45)CC3)c(Cl)cc2N1 [Ziprasidone] | 0.9155 |

Same assay, conditions: NCI-H292 cells, complete media; FDA drug library screen (TABLE 2)

| SMILES | Complete Media |
| --- | --- |
| C=CC(=O)N1CCC([C@@H]2CCNc3c(C(N)=O)c(-c4ccc(Oc5ccccc5)cc4)nn32)CC1 [Zanubrutinib] | 0.7031 |
| C[C@H](CSC(=O)c1ccccc1)C(=O)N1C[C@@H](Sc2ccccc2)C[C@H]1C(=O)O [Zofenopril (calcium)] | 0.8399 |

Same assay, conditions: NCI-H292 cells, complete media; cell growth value in FDA drug screen

| SMILES | Complete Media |
| --- | --- |
| COC(=O)[C@@H]1[C@H]2C[C@H]3c4[nH]c5ccccc5c4CCN3C[C@@H]2CC[C@@H]1O [Yohimbine (Hydrochloride)] | 1.067 |
| Nc1ccn([C@H]2CC[C@@H](CO)O2)c(=O)n1 [Zalcitabine] | 1.89 |
| O=C1Cc2cc(CCN3CCN(c4nsc5ccccc45)CC3)c(Cl)cc2N1 [Ziprasidone (hydrochloride monohydrate)] | 0.6228 |
| O=C1Cc2cc(CCN3CCN(c4nsc5ccccc45)CC3)c(Cl)cc2N1 [Ziprasidone] | 0.9832 |

Same assay, conditions: NCI-H292 cells, drug in cholesterol-free media with simvastatin 0.04 μM

| SMILES | Cholesterol-free media + simvastatin (0.04 μM) |
| --- | --- |
| C[C@@H](c1ncncc1F)[C@](O)(Cn1cncn1)c1ccc(F)cc1F [Voriconazole] | 1.08 |
| O=C(CCCCCCC(=O)Nc1ccccc1)NO [Vorinostat] | 0.872 |
| OC[C@@H](O)[C@H](O)[C@@H](O)CO [Xylitol] | 1.234 |
| CC(=O)N[C@H]1[C@H]([C@H](O)[C@H](O)CO)OC(C(=O)O)=C[C@@H]1N=C(N)N [Zanamivir] | 1.295 |
| CC(c1cc2ccccc2s1)N(O)C(N)=O (centres unmarked) [Zileuton] | 1.302 |
| NS(=O)(=O)Cc1noc2ccccc12 [Zonisamide] | 1.285 |

Same assay, conditions: NCI-H292 cells, drug in complete media

| SMILES | Complete Media |
| --- | --- |
| C[C@@H](c1ncncc1F)[C@](O)(Cn1cncn1)c1ccc(F)cc1F [Voriconazole] | 0.8559 |
| O=C(CCCCCCC(=O)Nc1ccccc1)NO [Vorinostat] | 0.635 |
| OC[C@@H](O)[C@H](O)[C@@H](O)CO [Xylitol] | 1.073 |
| CC(=O)N[C@H]1[C@H]([C@H](O)[C@H](O)CO)OC(C(=O)O)=C[C@@H]1N=C(N)N [Zanamivir] | 1.107 |
| CC(c1cc2ccccc2s1)N(O)C(N)=O (centres unmarked) [Zileuton] | 1.066 |
| NS(=O)(=O)Cc1noc2ccccc12 [Zonisamide] | 1.066 |

Same assay, conditions: complete media minus cholesterol-free media + simvastatin (0.04 μM); >0 enhanced anti-cancer activity, about 0 neutral, <0 antagonist

| SMILES | Difference |
| --- | --- |
| C=CC(=O)N1CCC([C@@H]2CCNc3c(C(N)=O)c(-c4ccc(Oc5ccccc5)cc4)nn32)CC1 [Zanubrutinib] | −0.02 |

Same assay, conditions: complete media minus cholesterol-free media + simvastatin (0.04 μM); […]

| SMILES | Difference |
| --- | --- |
| C[C@H](CSC(=O)c1ccccc1)C(=O)N1C[C@@H](Sc2ccccc2)C[C@H]1C(=O)O [Zofenopril (calcium)] | 0.00 |

Same assay, conditions: complete media minus cholesterol-free media + simvastatin; >0 enhanced anti-cancer activity, about 0 neutral, <0 antagonist

| SMILES | Difference |
| --- | --- |
| COC(=O)[C@@H]1[C@H]2C[C@H]3c4[nH]c5ccccc5c4CCN3C[C@@H]2CC[C@@H]1O [Yohimbine (Hydrochloride)] | 0.02 |
| Nc1ccn([C@H]2CC[C@@H](CO)O2)c(=O)n1 [Zalcitabine] | 0.06 |
| O=C1Cc2cc(CCN3CCN(c4nsc5ccccc45)CC3)c(Cl)cc2N1 [Ziprasidone (hydrochloride monohydrate)] | 0.05 |
| O=C1Cc2cc(CCN3CCN(c4nsc5ccccc45)CC3)c(Cl)cc2N1 [Ziprasidone] | 0.07 |

Same assay, conditions: complete media vs cholesterol-free media + simvastatin (0.04 μM); >0 enhanced anti-cancer activity, about 0 neutral, <0 antagonist

| SMILES | Difference |
| --- | --- |
| C[C@@H](c1ncncc1F)[C@](O)(Cn1cncn1)c1ccc(F)cc1F [Voriconazole] | −0.22 |
| O=C(CCCCCCC(=O)Nc1ccccc1)NO [Vorinostat] | −0.24 |
| OC[C@@H](O)[C@H](O)[C@@H](O)CO [Xylitol] | −0.16 |
| CC(=O)N[C@H]1[C@H]([C@H](O)[C@H](O)CO)OC(C(=O)O)=C[C@@H]1N=C(N)N [Zanamivir] | −0.19 |
| CC(c1cc2ccccc2s1)N(O)C(N)=O (centres unmarked) [Zileuton] | −0.24 |
| NS(=O)(=O)Cc1noc2ccccc12 [Zonisamide] | −0.22 |

The molecules below were run on NCI-H292 lung cancer cells (assay: FDA drug screening, complete media vs cholesterol-free media without statin (TABLE 1)). Conditions: Complete minus Cholesterol-free; >0 enhanced anti-cancer activity, about 0 neutral, <0 antagonist.
Assay type: cell-based, human

| SMILES | Difference |
| --- | --- |
| OC[C@@H](O)[C@H](O)[C@@H](O)CO [Xylitol] | −0.26 |
| Nc1ccn([C@H]2CC[C@@H](CO)O2)c(=O)n1 [Zalcitabine] | −0.22 |
| CC(c1cc2ccccc2s1)N(O)C(N)=O (centres unmarked) [Zileuton] | −0.21 |

Same assay, conditions: Complete minus Cholesterol-free; […]

| SMILES | Difference |
| --- | --- |
| C[C@H](CSC(=O)c1ccccc1)C(=O)N1C[C@@H](Sc2ccccc2)C[C@H]1C(=O)O [Zofenopril (calcium)] | −0.03 |

Same assay, conditions: Complete minus Cholesterol-free; greater than 0 enhanced anti-cancer activity, about 0 neutral, below 0 antagonist

| SMILES | Difference |
| --- | --- |
| O=C(CCCCCCC(=O)Nc1ccccc1)NO [Vorinostat] | −0.17 |

Same assay, conditions: Complete minus Cholesterol-free; greater than 0 enhanced anti-cancer activity, about 0 neutral, below 0 antagonists

| SMILES | Difference |
| --- | --- |
| COC(=O)[C@@H]1[C@H]2C[C@H]3c4[nH]c5ccccc5c4CCN3C[C@@H]2CC[C@@H]1O [Yohimbine (Hydrochloride)] | −0.74 |
| CC(=O)N[C@H]1[C@H]([C@H](O)[C@H](O)CO)OC(C(=O)O)=C[C@@H]1N=C(N)N [Zanamivir] | −0.85 |
| O=C1Cc2cc(CCN3CCN(c4nsc5ccccc45)CC3)c(Cl)cc2N1 [Ziprasidone] | −0.52 |
| NS(=O)(=O)Cc1noc2ccccc12 [Zonisamide] | −0.51 |

Same assay, conditions: NCI-H292 cells in cholesterol-free media without statin

| SMILES | Cholesterol-free |
| --- | --- |
| COC(=O)[C@@H]1[C@H]2C[C@H]3c4[nH]c5ccccc5c4CCN3C[C@@H]2CC[C@@H]1O [Yohimbine (Hydrochloride)] | 1.558 |
| CC(=O)N[C@H]1[C@H]([C@H](O)[C@H](O)CO)OC(C(=O)O)=C[C@@H]1N=C(N)N [Zanamivir] | 1.947 |
| O=C1Cc2cc(CCN3CCN(c4nsc5ccccc45)CC3)c(Cl)cc2N1 [Ziprasidone] | 1.408 |

Same assay, conditions: NCI-H292 cells in complete media

| SMILES | Complete |
| --- | --- |
| COC(=O)[C@@H]1[C@H]2C[C@H]3c4[nH]c5ccccc5c4CCN3C[C@@H]2CC[C@@H]1O [Yohimbine (Hydrochloride)] | 0.818 |
| CC(=O)N[C@H]1[C@H]([C@H](O)[C@H](O)CO)OC(C(=O)O)=C[C@@H]1N=C(N)N [Zanamivir] | 1.097 |
| O=C1Cc2cc(CCN3CCN(c4nsc5ccccc45)CC3)c(Cl)cc2N1 [Ziprasidone] | 0.89 |
| NS(=O)(=O)Cc1noc2ccccc12 [Zonisamide] | 1.109 |

Same assay, conditions: NCI-H292 cells, FDA drug library screen, cholesterol-free media without statin

| SMILES | Cholesterol-free |
| --- | --- |
| O=C(CCCCCCC(=O)Nc1ccccc1)NO [Vorinostat] | 0.4861 |

Same assay, conditions: NCI-H292 cells, FDA drug library screen, complete media

| SMILES | Complete |
| --- | --- |
| O=C(CCCCCCC(=O)Nc1ccccc1)NO [Vorinostat] | 0.3154 |

Same assay, conditions: NCI-H292 cells, cholesterol-free media without statin

| SMILES | Cholesterol-free |
| --- | --- |
| OC[C@@H](O)[C@H](O)[C@@H](O)CO [Xylitol] | 1.384 |
| Nc1ccn([C@H]2CC[C@@H](CO)O2)c(=O)n1 [Zalcitabine] | 1.156 |
| C=CC(=O)N1CCC([C@@H]2CCNc3c(C(N)=O)c(-c4ccc(Oc5ccccc5)cc4)nn32)CC1 [Zanubrutinib] | 0.7894 |
| CC(c1cc2ccccc2s1)N(O)C(N)=O (centres unmarked) [Zileuton] | 1.451 |

Same assay, conditions: NCI-H292 cells, cholesterol-free media without statin, FDA drug library screen

| SMILES | Cholesterol-free |
| --- | --- |
| C[C@@H](c1ncncc1F)[C@](O)(Cn1cncn1)c1ccc(F)cc1F [Voriconazole] | 0.6824 |
| O=C1Cc2cc(CCN3CCN(c4nsc5ccccc45)CC3)c(Cl)cc2N1 [Ziprasidone (hydrochloride monohydrate)] | 0.5848 |
| C[C@H](CSC(=O)c1ccccc1)C(=O)N1C[C@@H](Sc2ccccc2)C[C@H]1C(=O)O [Zofenopril (calcium)] | 1.281 |

Same assay, conditions: NCI-H292 cells, complete media

| SMILES | Complete |
| --- | --- |
| OC[C@@H](O)[C@H](O)[C@@H](O)CO [Xylitol] | 1.123 |
| Nc1ccn([C@H]2CC[C@@H](CO)O2)c(=O)n1 [Zalcitabine] | 0.9405 |
| C=CC(=O)N1CCC([C@@H]2CCNc3c(C(N)=O)c(-c4ccc(Oc5ccccc5)cc4)nn32)CC1 [Zanubrutinib] | 0.3496 |
| CC(c1cc2ccccc2s1)N(O)C(N)=O (centres unmarked) [Zileuton] | 1.238 |

Same assay, conditions: NCI-H292 cells, complete media, FDA drug library screen

| SMILES | Complete |
| --- | --- |
| C[C@@H](c1ncncc1F)[C@](O)(Cn1cncn1)c1ccc(F)cc1F [Voriconazole] | 0.9897 |
| O=C1Cc2cc(CCN3CCN(c4nsc5ccccc45)CC3)c(Cl)cc2N1 [Ziprasidone (hydrochloride monohydrate)] | 0.8552 |
| C[C@H](CSC(=O)c1ccccc1)C(=O)N1C[C@@H](Sc2ccccc2)C[C@H]1C(=O)O [Zofenopril (calcium)] | 1.25 |

Same assay, conditions: complete vs cholesterol-free media; >0 enhanced anti-cancer activity, about 0 neutral, <0 antagonist

| SMILES | Difference |
| --- | --- |
| C[C@@H](c1ncncc1F)[C@](O)(Cn1cncn1)c1ccc(F)cc1F [Voriconazole] | 0.31 |
| O=C1Cc2cc(CCN3CCN(c4nsc5ccccc45)CC3)c(Cl)cc2N1 [Ziprasidone (hydrochloride monohydrate)] | 0.27 |

Same assay, conditions: complete vs cholesterol-free media; greater than 0 enhanced anti-cancer activity, about 0 neutral, below 0 antagonists

| SMILES | Difference |
| --- | --- |
| C=CC(=O)N1CCC([C@@H]2CCNc3c(C(N)=O)c(-c4ccc(Oc5ccccc5)cc4)nn32)CC1 [Zanubrutinib] | −0.44 |
